Structures can show the parent of a compound that is named as a salt. Blank lines part the entries; values can stand above or below the compound they belong to.
Legend:
[1] = tested on: poly dA-poly dT (DNA, polymer) A/T; assay: CD titration; conditions: Na+ (sodium cacodylate, I = 0.05 M), pH 7.0, 25 °C, polynucleotide 3.0 × 10^-5 M
[2] = tested on: poly(dAdT)2 (DNA, polymer) AT; assay: UV thermal melting at 260 nm; conditions: Na+ (sodium cacodylate, I = 0.05 M), pH 7.0, r = [compound]/[polynucleotide phosphate] = 0.3, error ±0.5, per base
[3] = tested on: poly(dAdT)2 (DNA, polymer) AT; assay: CD titration; conditions: Na+ (sodium cacodylate, I = 0.05 M), pH 7.0, 25 °C, polynucleotide 3.0 × 10^-5 M
[4] = tested on: poly dA-poly dT (DNA, polymer) A/T; assay: UV thermal melting at 260 nm; conditions: Na+ (sodium cacodylate, I = 0.05 M), pH 7.0, r = [compound]/[polynucleotide phosphate] = 0.3, error ±0.5, per base
[5] = tested on: S. aureus ATCC 29213; assay: Broth microdilution testing (CLSI); assay type: cell-based, Staphylococcus aureus; conditions: broth microdilution, 16–24h at 37 °C; read-out: MIC S. aureus ATCC 29213
Experimental: (§1) Broth microdilution testing was performed according to CLSI (Clinical Laboratory Standards Institute) guidelines. MIC (minimal inhibitory concentration) value was defined as the last tested concentration of compound at which there is no visible growth of bacteria. […] Clinical and Laboratory Standards Institute (CLSI) guidelines.

[6] = tested on: NCI-H358; assay: Cytotoxicity (viability) assay, 3D hanging drop cell culture; conditions: read-out: Cytotoxicity Assay IC50 ± SD; NCI-H358 3D; NCI-H358, 3D hanging drop spheres, 72 h; n = 2
[7] = tested on: A549; assay: as above; conditions: read-out: Cytotoxicity Assay IC50 ± SD; A549 3D; A549, 3D hanging drop spheres, 72 h; n = 2
[8] = tested on: HCC827; assay: as above; conditions: read-out: Cytotoxicity Assay IC50 ± SD; HCC827 3D; HCC827, 3D hanging drop spheres, 72 h; n = 2
[9] = tested on: E. coli ATCC 25922; assay: Broth microdilution testing (CLSI); assay type: cell-based, Escherichia coli; conditions: broth microdilution, 16–24h at 37 °C; read-out: MIC E. coli ATCC 25922
Experimental: as §1

[10] = tested on: human lung fibroblast cell line MRC-5; assay: MTS cytotoxicity assay, 2D cell culture, normal lung fibroblasts; conditions: read-out: Cytotoxicity Assay IC50 ± SD; MRC-5 2D; MRC-5 normal lung fibroblasts, 2D, 72 h, MTS; n = 2
[11] = tested on: NCI-H358; assay: MTS cytotoxicity assay, 2D cell culture; conditions: read-out: Cytotoxicity Assay IC50 ± SD; NCI-H358 2D, 72 h, MTS; n = 2
[12] = tested on: A549; assay: MTS cytotoxicity assay, 2D cell culture; conditions: read-out: Cytotoxicity Assay IC50 ± SD; A549 2D, 72 h, MTS; n = 2
[13] = tested on: HCC827; assay: MTS cytotoxicity assay, 2D cell culture; conditions: read-out: Cytotoxicity Assay IC50 ± SD; HCC827 2D, 72 h, MTS; n = 2
[14] = tested on: NCI-H358; assay: BrdU proliferation assay, 3D hanging drop cell culture; assay type: cell-based, human; conditions: NCI-H358, 3D, n = 2, read-out: Proliferation Assay IC50 ± SD
[15] = tested on: A549; assay: as above; assay type: cell-based, human; conditions: A549, 3D, BrdU, n = 2, read-out: Proliferation Assay IC50 ± SD
[16] = tested on: HCC827; assay: as above; assay type: cell-based, human; conditions: HCC827, 3D, BrdU, n = 2, read-out: Proliferation Assay IC50 ± SD
[17] = tested on: S. cerevisiae ATCC 7752; assay: Broth microdilution testing (CLSI); assay type: cell-based, Saccharomyces cerevisiae; conditions: broth microdilution, 16–24h at 37 °C; read-out: MIC S. cerevisiae ATCC 7752
Experimental: as §1

[18] = tested on: NCI-H358; assay: BrdU proliferation assay, 2D cell culture; assay type: cell-based, human; conditions: NCI-H358, 2D, n = 2, read-out: Proliferation Assay IC50 ± SD
[19] = tested on: A549; assay: BrdU proliferation assay, 2D cell culture; assay type: cell-based, human; conditions: A549, 2D, BrdU, n = 2, read-out: Proliferation Assay IC50 ± SD
[20] = tested on: HCC827; assay: BrdU proliferation assay, 2D cell culture; assay type: cell-based, human; conditions: HCC827, 2D, BrdU, n = 2, read-out: Proliferation Assay IC50 ± SD

- binding [1]: yes
- melting point: 262 to 269 °C
- ΔTm [2]: 6.2 °C
- binding [3]: yes
- ΔTm [4]: 11.7 °C
SMILES: Clc1ccc(-c2ccc(-c3nc4cc(C5=NCCN5)ccc4[nH]3)o2)cc1 (as salt: hydrochloride) [Compound 15, 2-[5-(4-Chlorophenyl)furan-2-yl]-5(6)-(4,5-dihydro-1H-imidazol-2-yl)benzimidazole hydrochloride]

SMILES: N#CC(=Cc1ccc(-c2ccc(Cl)cc2)o1)c1nc2cc([N+](=O)[O-])ccc2[nH]1 [Compound 21, (E,Z)-3-[5-(4-Chlorophenyl)furan-2-yl]-2-(5(6)-nitrobenzimidazol-2-yl)acrylonitrile]
- MIC [5]: >100 µM
- IC50 [6]: > 100 µM
- IC50 [7]: > 100 µM
- IC50 [8]: > 100 µM
- MIC [9]: >100 µM
- IC50 [10]: > 50 µM
- IC50 [11]: 3.58 ± 0.95 µM
- IC50 [12]: > 50 µM
- IC50 [13]: > 50 µM
- IC50 [14]: > 100 µM
- IC50 [15]: > 100 µM
- IC50 [16]: > 100 µM
- MIC [17]: >100 µM
- IC50 [18]: > 50 µM
- IC50 [19]: > 50 µM
- IC50 [20]: > 50 µM

Source: publication PMC8401404 (Molecules, 2021)
